Experiments:
[1] = test system: antibodies produced by cell culture 89-147EH9; test: CIEIA for detection of biocides, four inhibitors at several concentrations; format: binding, mouse; details: no inhibitor 515
Description: The supernatants from wells with growing colonies of hybridomas were screened using CIEIA. Ninety-six well polystyrene EIA ([…]) plates were coated with 100 μl of 651 conjugated to BSA (651-BSA) for at least two hours at room temperature or 16 hours at 4° C. Unbound material was washed from the wells with five washes of PBS-T. […] The wells then received 50 μl of supernatant from each cell culture, so that each supernatant was reacted with either buffer, 651 or 573 (inhibitors). […] The wells were incubated for 30-60 minutes at room temperature. They were then washed five times with PBS-T to remove unbound material and each well then received 100 μl of a 1 μg/ml solution of biotinylated horse anti-mouse IgG (Vector Laboratories, Burlingame, Calif.), and the assay continued as described for the ELISA, supra.

[2] = test system: anti-651 antibody covalently linked to horseradish peroxidase; test: Colorometric determination of isothiazolones in wood with anti-651-HRP; format: binding; details: pressure treated Southern Yellow pine wafer, anti-651-HRP 500 ng/ml, ABTS, corrected for background; control wafer 0.002
Description: Southern Yellow pine, which had been pressure treated with a solution containing 4,5-dichloro-2-n-octyl-3-isothiazolone using commercial methods, was cut into wafers (0.5×2.5 cm). These wood wafers were soaked in a solution of 3% nonfat milk for 30 minutes. The wafers were then rinsed briefly with PBS-T, and then exposed to the anti-651 antibody, which is covalently linked to horseradish peroxidase at 500 ng/ml, for 15 minutes. The wafers were then washed twice for 30 minutes each in PBS-T buffer. The bound anti-651-HRP complex was visualized by placing the wafers in a vial containing HRP substrate (ABTS). The appearance of a […] color in the solution indicated the presence of 4,5-dichloro-2-n-octyl-3-isothiazolone. A 200 μl aliquot of the solution in the vial was taken and the absorbance determined at 405 nm. This was compared to a control wood wafer treated in an identical manner but containing no isothiazolone. The absorbance values were then corrected for background.

SMILES	10 Minute Absorbances × 1000 ([1]; inhibitor concentration 0.08 ppm)	10 Minute Absorbances × 1000 ([1]; inhibitor concentration 0.4 ppm)	10 Minute Absorbances × 1000 ([1]; inhibitor concentration 2 ppm)	10 Minute Absorbances × 1000 ([1]; inhibitor concentration 10 ppm)	10 Minute Absorbances × 1000 ([1]; inhibitor concentration 50 ppm)	A405 [2]
CNC(=O)CC(=O)O [NMA, Nmethyl malonamic acid]	429	519	496	518	490	
CCCCCCCCn1sc(Cl)c(Cl)c1=O [compound 287, 4,5-dichloro-2-n-octyl-3-isothiazolone]						0.165
CCCCCCCCn1sccc1=O [compound 893, 2-n-octyl-3-isothiazolone]			514	589	516	

From US5554542A, “Immunoassay for isothiazolones” (Rohm and Haas Company, priority 1993, dated 1996)
